Data set [1] is described as follows: Test for measuring blood level. The data set is classed as in vivo. To be noted: mouse, serum; BDF1 male mice, 200 mg/kg oral, one hour after the administration. On the procedure: A pharmacokinetic study was performed using 6 week-old BDF1 male mice. The test substances were mixed with hydroxylpropylcellulose (low-molecular weight form) [HPC(L)] in 2.5-fold of the drug weight, and dissolved in dichloromethane. The solvent was evaporated to dryness. To make the dosing formation, the residue was suspended in distilled water to prepare the drug level of 20 mg/mL. The test compounds were administered compulsorily and orally at a dose of 200 mg/kg to the mice that had been starved for 16 hours. One hour after the administration, blood was collected from the orbits of two mice to obtain serum. Internal standards solution and 1 ml of distilled water were added to 100 μL, of serum thus obtained, and then extracted with diethylether. The solvent was evaporated under vacuum, and the residue was resolved with eluent to provide samples for the HPLC measurement. HPLC was performed by using reversed-phase type column, and acetonitrile-phosphate buffer (pH 2.5) was used as the eluent. Using regression curves (Y=aX+b) obtained from the standards, the drug levels in the sample serum were calculated.

The test system of data set [2] is mouse spleen cells. Description: Proliferation inhibition assay for mouse spleen cells. The format is cell-based. To be noted: 72 h, 3 days, Alamar Blue. A digest of the protocol:
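C57BL/6N female mouse spleen cells (2×10^6 cells/mL) stimulated with Con A (3 μg/mL), LPS (100 μg/mL) or anti-mouse IgM (100 μg/mL) alongside serially diluted compounds, 3 days at 37° C, 5% CO2. Alamar Blue added for a further day; fluorescence read at ex 530/em 590 nm.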
A general note: The colour change of resazurin is a common sign of viable cells or microbes.

The test system of data set [3] is Daudi cells. Description: Proliferation inhibitory activity on hematologic neoplasm cells, Daudi. The data set is classed as cell-based. The settings on record: Homo sapiens, Daudi, 72 h; 3 days, Alamar Blue.
Data set [4] concerns Jurkat cells. Nature of the data set: Proliferation inhibitory activity on hematologic neoplasm cells, Jurkat. The data set is classed as cell-based. The settings on record: Homo sapiens, Jurkat, 72 h; 3 days, Alamar Blue.
Data set [5] relates to THP-1 cells. Description: Proliferation inhibitory activity on hematologic neoplasm cells, THP-1. The data set is classed as cell-based. The settings on record: Homo sapiens, THP-1, 72 h; 3 days, Alamar Blue.
Data set [6] relates to Salmonella typhimurium TA98, TA100, TA1535, TA1537 and Escherichia coli WP2uvrA. Description: Ames test. The data set is classed as cell-based. To be noted: preincubation method, with or without S-9, up to 5000 μg/flat plate. The method, then:
Using 5 strains of Salmonella typhimurium TA98, TA100, TA1535, TA1537 and Escherichia coli WP2uvrA, the test substances (Compound 4, Compound 19, Compound 22 and Compound 24) were tested for their mutagenesis according to a preincubation method.
Background: The Ames test detects mutagens through reverse mutation in bacteria.

In data set [7] the test system is human peripheral blood mononuclear cells. Description: Proliferation inhibition assay for human peripheral blood mononuclear cells. The format is cell-based. The settings on record: Homo sapiens, 72 h; PBMC, anti-CD3 and anti-CD28 antibody, 3 days, Alamar Blue. The method, then:
4 mL of blood collected from healthy subjects was placed on 3 mL of MonoPoly Resolving Medium, and after centrifugation, the mononuclear cell (PBMC) fraction was collected. After washing with saline, PBMC (1×10^5 cells/mL) was suspended in RPMI 1640 medium (containing 10% fetal bovine serum, 10 mM HEPES, 1 mM pyruvic acid, and 4.5 g/L glucose). Next, after having added an anti-CD28 antibody (1 μg/mL) to the suspension, they were seeded on an anti-human CD3 T cell activation plate (BD Bioscience) at a capacity of 0.135 mL per well. Then, serial dilutions of test substances were added to respective wells, and incubated under conditions of carbon dioxide 5% at a temperature 37° C. After 3 days, Alamar Blue solution was added at 50 μL per well, and after incubation for one day, a fluorescence intensity at 590 nm using an excitation wavelength of 530 nm was determined by Cytoflour 4000 (Applied Biosystems).

For data set [8] the test system is unchanged. Nature of the data set: Activation inhibition assay for human peripheral blood mononuclear cells (CD40L, CD69 expression). The data set is classed as cell-based. To be noted: PBMC, anti-CD3 + anti-CD28, 6 hours, flow cytometry. On the procedure:
In accordance with the method of Assay Example 2, PBMC (2×10^6 cells/mL) was isolated from human peripheral blood, suspended in RPMI 1640 medium (containing 10% fetal bovine serum, 10 mM HEPES, 1 mM pyruvic acid, and 4.5 g/L glucose), and seeded in wells of a 96 well plate at 0.225 mL per well. The test substances were added to respective wells, and then an anti-CD3 antibody (2 μg/mL) and an anti-CD28 antibody (1 μg/mL) were added. Then, after incubation under conditions of carbon dioxide 5% at a temperature 37° C. for 6 hours, the expressions of CD40L and CD69, activation markers, were analysed by flow cytometry. As a result, when the cells were stimulated by both an anti-CD3 antibody and an anti-CD28 antibody, CD40L was expressed on 14.4% of PBMC, which was also CD4 positive. However, the proportion of the cells which expressed CD40L decreased when the cells had been treated with test substances (Compound 4: 4.9%; Compound 20: 3.7%, Compound 24: 3.6%).
For orientation: A flow cytometer gives signals particle by particle.

In data set [9] the test system is Rabbit synoviocytes HIG-82. Description: Inhibition assay for proliferation of rabbit synoviocyte. The data set is classed as cell-based. The settings on record: Oryctolagus cuniculus, 72 h; HIG-82, 3 days, Alamar Blue.
In data set [10] the test system is allogeneic mixed lymphocyte reaction. Nature of the data set: Allogeneic mixed lymphocyte reaction. The data set is classed as cell-based, mouse. To be noted: Mus musculus, Lymphocyte; C57BL/6N spleen stimulator cells, BALB/c lymph node responder cells, 86 hours, BrdU. On the procedure: Spleen cells prepared from C57BL/6N female mice (8-10 weeks old, purchased from Charles River Laboratories Japan Inc.) and peripheral lymph node mononuclear cells prepared from BALB/c female mice (8-10 weeks old, purchased from Charles River Laboratories Japan Inc.) were used as stimulator cells and responder cells, respectively. The respective cells were suspended in RPMI 1640 medium (containing 10% fetal bovine serum, 100 units/mL penicillin, and 0.1 mg/mL streptomycin) (with 2×10^6 cells/mL).

The subject of data set [11] is HL 60 cells. Description: Proliferation inhibitory activity on hematologic neoplasm cells, HL60. The format is cell-based. The settings on record: Homo sapiens, HL-60, 72 h; 3 days, Alamar Blue. On the procedure:
(§1) Daudi cells (5×10^5 cells/mL), Jurkat cells (5×10^5 cells/mL), THP-1 cells (5×10^5 cells/mL), U 937 cells (5×10^5 cells/mL), and HL 60 cells (5×10^5 cells/mL) suspended in RPMI 1640 medium (containing 10% fetal bovine serum, 10 mM HEPES, 1 mM pyruvic acid, 4.5 g/L glucose, 100 units/mL penicillin, and 0.1 mg/mL streptomycin) were seeded in 96 well plates at a capacity of 0.135 mL per well. Serial dilutions of test substances were added to respective wells at 15 μL/well, and incubated under conditions of carbon dioxide 5% at 37° C. for 3 days. Thereafter, Alamar Blue solution was added at 50 μL, and after incubation for one day, the fluorescence intensity at 590 nm using an excitation wavelength of 530 nm was determined by Cytoflour 4000 (Applied Biosystems).

The subject of data set [12] is U 937 cells. Description: Proliferation inhibitory activity on hematologic neoplasm cells, U937. The data set is classed as cell-based. The settings on record: Homo sapiens, U-937, 72 h; 3 days, Alamar Blue. The method, then:
as §1

For data set [13], the system named is fulminant hepatitis. Description: Fulminant hepatitis model (galactosamine and LPS). The data set is classed as in vivo, mouse. The settings on record: BALB/c mice, galactosamine 800 mg/kg and LPS 110 μg/kg i.p. On the procedure: BALB/c male mice (7 weeks old, purchased from Charles River Laboratories Japan Inc.) were used in the experiment. After having orally administered the test substances suspended in 5% HPC, galactosamine (800 mg/kg) and LPS (110 μg/kg) were intraperitoneally administered. Then, survival rates at 72 hours after administration were obtained.

The mark [14] stands for this setting: LPS 100 μg/mL, read-out: Inhibition of LPS response.
Where [15] appears, read: concanavalin A 3 μg/mL, read-out: Inhibition of Con A response.
Setting [16] is: anti-mouse IgM antibody 100 μg/mL, read-out: Inhibition of Anti-IgM antibody response.

Structures are written as SMILES. Where two headings read alike, the source gives them in different places.

What is called melting point is the temperature, or range, at which the solid turns liquid. For `COc1cccc2c1nc(C(F)F)n2-c1nc(N2CCOCC2)cc(N2CCO[C@@H](C)[C@H]2C)n1` (relative stereo) [Compound 37, 2-(2-Difluoromethyl-4-methoxybenzimidazol-1-yl)-4-(cis-2,3-dimethylmorpholino)-6-morpholinopyrimidine], the melting point lay within 176 to 178 °C. The compound further yielded a concentration at 1 h in data set [1] of 4760 ng/mL.
Take `CC1(C)CN(c2nc(N3CCOCC3)nc(-n3c(C(F)F)nc4c(Cl)cc(N)cc43)n2)CCO1` [Compound 19, 2-(6-Amino-4-chloro-2-difluoromethylbenzimidazol-1-yl)-4-(2,2-dimethylmorpholino)-6-morpholino-1,3,5-triazine]: the melting point was 238 °C (dec.). Also, the IC50 in data set [2] (setting [14]) was in the range of 1 to 100 nM. For the same compound, in data set [2] (setting [15]), the IC50 lay within 1 to 100 nM. The compound further registered an IC50 in [3] of 21.2 nM. This compound also gave an IC50 in [4] of 1600 nM. The IC50 in data set [5] came to 120 nM. Further, the “mutagenesis (colony number of reverse mutation)” value in [6] is recorded as “negative”.
On to `OCC1CCCN1c1nc(N2CCOCC2)nc(-n2c(C(F)F)nc3c(O)cccc32)n1` (stereo not shown) [Compound 20, 2-(2-Difluoromethyl-4-hydroxybenzimidazol-1-yl)-4-(2-hydroxymethylpyrrolidin-1-yl)-6-morpholino-1,3,5-triazine], for which the IC50 in data set [2] (setting [14]) is at most 1 nM; in data set [2] (setting [16]), at most 1 nM; in [2] (setting [15]), at most 1 nM; in data set [7], 8.15 nM; in data set [9] it was 122 nM; in data set [10], 136 nM. The IC50 in [3] is 8.23 nM; in data set [4] it was 196 nM; in [11] it was 74.5 nM; in data set [5], 44 nM; in data set [12], 252 nM. Moreover, the “proportion of the cells which expressed CD40L” value in [8] (CD4 positive, 14.4% without test substance) turned out to be 3.7%. Besides, in data set [8] (28.8% without test substance), the “proportion of CD4-positive cells which expressed CD69” value was found to be 10.1%. The “proportion of CD4-negative cells which expressed CD69” value in [8] (50.9% without test substance) is 10.5%. In addition, the “Survival Rate after 72 Hours” value in data set [13] (50 mg/kg oral) is 17%; in data set [13] (100 mg/kg oral), 72%.
With `CC1(C)COCCN1c1cc(N2CCOCC2)nc(-n2c(C(F)F)nc3c(O)cccc32)n1` [Compound 22, 2-(2-Difluoromethyl-4-hydroxybenzimidazol-1-yl)-4-(3,3-dimethylmorpholino)-6-morpholinopyrimidine], the melting point is 204 to 206 °C. In data set [2] (setting [14]), the IC50 was at most 1 nM. For the same compound, in data set [2] (setting [16]), the IC50 was at most 1 nM. The IC50 in [2] (setting [15]) was at most 1 nM. For the same compound, the “mutagenesis (colony number of reverse mutation)” value in data set [6] was “negative”.
For `COc1cccc2c1nc(C(F)F)n2-c1nc(N2CCOCC2)cc(N2CCOC(C)(C)C2)n1` [Compound 36, 2-(2-Difluoromethyl-4-methoxybenzimidazol-1-yl)-4-(2,2-dimethylmorpholino)-6-morpholinopyrimidine], the melting point lay within 166 to 168 °C. In addition, the concentration at 1 h in data set [1] worked out at 7170 ng/mL.
The like results for `CCOc1cccc2c1nc(C(F)F)n2-c1nc(N2CCOCC2)cc(N2CCOC(C)(C)C2)n1` [Compound 38, 2-(2-Difluoromethyl-4-ethoxybenzimidazol-1-yl)-4-(2,2-dimethylmorpholino)-6-morpholinopyrimidine] were, in that order, 114 to 116 °C and 5910 ng/mL.
